This passage reports IC50 results from US20230278996A1, “YKL-40 INHIBITORS AND THEIR THERAPEUTIC APPLICATIONS” (Molecure S.A., priority 2022, published 2023).

SMILES strings stand for the structures. Structures can show the parent of a compound that is named as a salt. Bounds are passed on as bounds.

One assay has as its target YKL-40 (Homo sapiens (Human), UniProt P36222). In words: YKL-40:4 assay, competitive chitin binding site AlphaScreen. The conditions noted are these: competition with biotinylated compound 4 (20 nM), YKL-40-histag 2.5 nM. On the technique in general: In Alpha technology, singlet oxygen from a donor bead excites a nearby acceptor bead.
Assay [1] addresses YKL-40: heparan sulfate interaction (Homo sapiens (Human), UniProt P36222). Description: YKL-40:HS assay, heparan sulfate interference AlphaScreen. As to conditions: competition with biotinylated heparan sulphate (60 nM). The class given is binding.
Procedure: In the similar way to establishing YKL-40 chitin binding site competitive AlphaScreen assay (section 3), the YKL-40 AlphaScreen assay using biotinylated 9 kDa heparan sulfate fraction III was established, including the same buffer conditions (50 mM Tris HCl pH 7.4, 150 mM NaCl, 10 mM MgCl2, 0.05% Tween 20, 1 mg/mL BSA 1% DMSO). […] Next, biotinylated heparan sulfate fraction III custom-ordered from Iduron was cross-titrated with histagged YKL-40 using AlphaScreen assay described above.
Positive and negative control wells received just 8 uL of MST buffer containing 2% DMSO without inhibitor in the 2nd step (ii). In addition, negative control received just 8 uL of MST buffer containing 0% DMSO without YKL-40-histag in the 3nd step (iii). Finally, the plate luminescence was excited at 680 nm and the emission read at 520-620 nm using the AlphaScreen module in the The Spark™ 10 M multimode microplate reader (Tecan Trading AG, Männedorf, Switzerland). Inhibition percentage and IC50 values were determined using GraphPad Prism 7.0 software (GraphPad Software, San Diego, Calif., USA).

Sequence of YKL-40 (P36222 22-383): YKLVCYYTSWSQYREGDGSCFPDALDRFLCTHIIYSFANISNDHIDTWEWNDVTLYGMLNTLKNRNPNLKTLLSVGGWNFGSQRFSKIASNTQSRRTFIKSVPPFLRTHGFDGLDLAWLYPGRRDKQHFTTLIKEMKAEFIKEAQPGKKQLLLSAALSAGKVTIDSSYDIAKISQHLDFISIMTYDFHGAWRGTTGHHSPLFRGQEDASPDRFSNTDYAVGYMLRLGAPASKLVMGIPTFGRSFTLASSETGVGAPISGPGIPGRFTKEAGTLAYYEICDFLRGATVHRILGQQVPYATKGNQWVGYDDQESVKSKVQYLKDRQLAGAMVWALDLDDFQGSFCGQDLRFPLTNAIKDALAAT
Sequence of YKL-40: heparan sulfate interaction (P36222 22-383): as above

What is called IC50 is the concentration at which inhibition is half-maximal. Lower therefore signals inhibition by little substance. Turning to `CN1C[C@H](Cc2ccc(Cl)cc2)N(C2CCN(c3cc(Cl)ccn3)CC2)C[C@@H]1CN1CCOCC1` [compound 51, 4-(((2S,5S)-5-(4-chlorobenzyl)-4-(1-(4-chloropyridin-2-yl)piperidin-4-yl)-1-methyl-piperazin-2-yl)methyl)morpholine hydrochloride], the IC50 at YKL-40 was under 0.1 µM; in assay [1] it was under 100 nM.

`CC(C)C1OC[C@H](Cc2ccc(Cl)cc2)N1C1CCN(c2ccccn2)CC1` (stereo partly drawn) [compound 150, (4S)-4-(4-chlorobenzyl)-2-isopropyl-3-(1-(pyridin-2-yl)piperidin-4-yl)oxazolidine hydrochloride] gave an IC50 on YKL-40 of over 100 µM.

For the compound `C[C@H]1CN(C2CCN(c3cncc(C(F)(F)F)n3)CC2)[C@@H](Cc2ccc(Cl)cc2)CO1` [compound 153, (2S,5S)-5-(4-chlorobenzyl)-2-methyl-4-(1-(6-(trifluoromethyl)pyrazin-2-yl)piperidin-4-yl)morpholine hydrochloride], the IC50 at YKL-40 was over 100 µM.

The compound `CNC(=O)[C@H]1CN(C2CCN(c3ccccn3)CC2)[C@@H](Cc2ccc(Cl)cc2)CO1` [compound 154, (2R,5S)-5-(4-chlorobenzyl)-N-methyl-4-(1-(pyridin-2-yl)piperidin-4-yl)morpholine-2-carboxamide hydrochloride] displayed an IC50 on YKL-40 of 0.1 to 1 µM.

Turning to `Clc1ccc(C[C@H]2CN3CCOC[C@H]3CN2C2CCN(c3ccccn3)CC2)cc1` [compound 155, (7S,9aR)-7-(4-chlorobenzyl)-8-(1-(pyridin-2-yl)piperidin-4-yl)octahydropyrazino[2,1-c][1,4]oxazine hydrochloride], on YKL-40, the half-maximal inhibitory concentration (IC50) is under 0.1 µM.

At YKL-40, `C[C@H]1CN(C2CCN(c3ccnc(Br)c3)CC2)[C@@H](Cc2ccc(Cl)cc2)CO1` [compound 156, (2S,5S)-4-(1-(2-bromopyridin-4-yl)piperidin-4-yl)-5-(4-chlorobenzyl)-2-methylmorpholine hydrochloride] had an IC50 of 10 to 100 µM.

With `C[C@H]1CN(C2CCN(c3cccc4nccn34)CC2)[C@@H](Cc2ccc(Cl)cc2)CO1` [compound 157, (2S,5S)-5-(4-chlorobenzyl)-4-(1-(imidazo[1,2-α]pyridin-5-yl)piperidin-4-yl)-2-methylmorpholine hydrochloride], the concentration for half-maximal inhibition (IC50) at YKL-40 is 10 to 100 µM.

Regarding `C[C@H]1CN(C2CCN(c3cnc(C(F)(F)F)cn3)CC2)[C@@H](Cc2ccc(Cl)cc2)CO1` [compound 158, (2S,5S)-5-(4-chlorobenzyl)-2-methyl-4-(1-(5-(trifluoromethyl)pyrazin-2-yl)piperidin-4-yl)morpholine hydrochloride], the IC50 on YKL-40 was over 100 µM.

`C[C@H]1CN(c2ccc(-c3ccccn3)cc2)[C@@H](Cc2ccc(Cl)cc2)CO1` [compound 159, (2S,5S)-5-(4-chlorobenzyl)-2-methyl-4-(4-(pyridin-2-yl)phenyl)morpholine hydrochloride] displayed an IC50 on YKL-40 of 0.1 to 1 µM.

In turn, `C[C@H]1CN(C2CCN(c3ncccc3O)CC2)[C@@H](Cc2ccc(Cl)cc2)CO1` [compound 160, 2-(4-((2S,5S)-5-(4-chlorobenzyl)-2-methylmorpholino)piperidin-1-yl)pyridin-3-ol 2,2,2-trifluoroacetate] registered an IC50 at YKL-40 of over 100 µM.

Take `C[C@H]1CN(C2CCN(c3cc(O)ccn3)CC2)[C@@H](Cc2ccc(Cl)cc2)CO1` [compound 161, 2-(4-((2S,5S)-5-(4-chlorobenzyl)-2-methylmorpholino)piperidin-1-yl)pyridin-4-ol 2,2,2-trifluoroacetate]: the IC50 on YKL-40 is 10 to 100 µM.

As to `COc1cccnc1N1CCC(N2C[C@H](C)OC[C@@H]2Cc2ccc(Cl)cc2)CC1` [compound 162, (2S,5S)-5-(4-chlorobenzyl)-4-(1-(3-methoxypyridin-2-yl)piperidin-4-yl)-2-methylmorpholine 2,2,2-trifluoroacetate], on YKL-40, the IC50 was over 100 µM.

With `CC(C)c1nc(N2CCC(N3C[C@H](C)OC[C@@H]3Cc3ccc(Cl)cc3)CC2)no1` [compound 163, (2S,5S)-5-(4-chlorobenzyl)-4-(1-(5-isopropyl-1,2,4-oxadiazol-3-yl)piperidin-4-yl)-2-methylmorpholine 2,2,2-trifluoroacetate], the IC50 at YKL-40 was over 100 µM.

Take `C[C@H]1CN(C2CCN(c3noc(C(F)(F)F)n3)CC2)[C@@H](Cc2ccc(Cl)cc2)CO1` [compound 164, (2S,5S)-5-(4-chlorobenzyl)-2-methyl-4-(1-(5-(trifluoromethyl)-1,2,4-oxadiazol-3-yl)piperidin-4-yl)morpholine 2,2,2-trifluoroacetate]: the concentration for half-maximal inhibition (IC50) at YKL-40 is over 100 µM.

On to `C[C@H]1CN(C2CCN(c3noc(=O)[nH]3)CC2)[C@@H](Cc2ccc(Cl)cc2)CO1` [compound 165, 3-(4-((2S,5S)-5-(4-chlorobenzyl)-2-methylmorpholino)piperidin-1-yl)-1,2,4-oxadiazol-5(4H)-one 2,2,2-trifluoroacetate], for which, at YKL-40, the IC50 was over 100 µM.

`C[C@H]1CN(C2CCN(c3nnn[nH]3)CC2)[C@@H](Cc2ccc(Cl)cc2)CO1` [compound 166, (2S,5S)-4-(1-(1H-tetrazol-5-yl)piperidin-4-yl)-5-(4-chlorobenzyl)-2-methylmorpholine 2,2,2-trifluoroacetate] gave an IC50 on YKL-40 of over 100 µM.

Consider `C[C@H]1CN(C2CCN(c3cc(=O)[nH]cn3)CC2)[C@@H](Cc2ccc(Cl)cc2)CO1` [compound 167, 6-(4-((2S,5S)-5-(4-chlorobenzyl)-2-methylmorpholino)piperidin-1-yl)pyrimidin-4(3H)-one 2,2,2-trifluoroacetate], for which the IC50 on YKL-40 was over 100 µM.

`C[C@H]1CN(C2CCN(c3ncc(C(F)(F)F)o3)CC2)[C@@H](Cc2ccc(Cl)cc2)CO1` [compound 168, (2S,5S)-5-(4-chlorobenzyl)-2-methyl-4-(1-(5-(trifluoromethyl)oxazol-2-yl)piperidin-4-yl)morpholine 2,2,2-trifluoroacetate] showed an IC50 on YKL-40 of over 100 µM.

In the case of `C[C@H]1CN(C2CCN(c3ncnc(Cl)n3)CC2)[C@@H](Cc2ccc(Cl)cc2)CO1` [compound 169, (2S,5S)-4-(1-(4-chloro-1,3,5-triazin-2-yl)piperidin-4-yl)-5-(4-chlorobenzyl)-2-methylmorpholine 2,2,2-trifluoroacetate], the IC50 at YKL-40 was over 100 µM.

The compound `C[C@H]1CN(C2CCN(c3ncnc(O)n3)CC2)[C@@H](Cc2ccc(Cl)cc2)CO1` [compound 170, 4-(4-((2S,5S)-5-(4-chlorobenzyl)-2-methylmorpholino)piperidin-1-yl)-1,3,5-triazin-2-ol 2,2,2-trifluoroacetate] showed a half-maximal inhibitory concentration (IC50) at YKL-40 of over 100 µM.

At YKL-40, `COc1ncnc(N2CCC(N3C[C@H](C)OC[C@@H]3Cc3ccc(Cl)cc3)CC2)n1` [compound 171, (2S,5S)-5-(4-chlorobenzyl)-4-(1-(4-methoxy-1,3,5-triazin-2-yl)piperidin-4-yl)-2-methylmorpholine 2,2,2-trifluoroacetate] showed an IC50 of over 100 µM.

`Cc1ncnc(N2CCC(N3C[C@H](C)OC[C@@H]3Cc3ccc(Cl)cc3)CC2)n1` [compound 172, (2S,5S)-5-(4-chlorobenzyl)-2-methyl-4-(1-(4-methyl-1,3,5-triazin-2-yl)piperidin-4-yl)morpholine 2,2,2-trifluoroacetate] gave a half-inhibitory concentration (IC50) on YKL-40 of over 100 µM.

At YKL-40, `C[C@H]1CN(C2CCN(c3ncnc(C#N)n3)CC2)[C@@H](Cc2ccc(Cl)cc2)CO1` [compound 173, 4-(4-((2S,5S)-5-(4-chlorobenzyl)-2-methylmorpholino)piperidin-1-yl)-1,3,5-triazine-2-carbonitrile 2,2,2-trifluoroacetate] had a half-maximal inhibitory concentration (IC50) of over 100 µM.

For the compound `C[C@H]1CN(C2CCN(c3ncnc(N)n3)CC2)[C@@H](Cc2ccc(Cl)cc2)CO1` [compound 174, 4-(4-((2S,5S)-5-(4-chlorobenzyl)-2-methylmorpholino)piperidin-1-yl)-1,3,5-triazin-2-amine 2,2,2-trifluoroacetate], the IC50 on YKL-40 is over 100 µM.

Turning to `C[C@H]1CN(C2CCN(c3ncnc(N(C)C)n3)CC2)[C@@H](Cc2ccc(Cl)cc2)CO1` [compound 175, 4-(4-((2S,5S)-5-(4-chlorobenzyl)-2-methylmorpholino)piperidin-1-yl)-N,N-dimethyl-1,3,5-triazin-2-amine 2,2,2-trifluoroacetate], the IC50 at YKL-40 was over 100 µM.

`C[C@H]1CN(C2CCN(c3ncns3)CC2)[C@@H](Cc2ccc(Cl)cc2)CO1` [compound 179, (2S,5S)-4-(1-(1,2,4-thiadiazol-5-yl)piperidin-4-yl)-5-(4-chlorobenzyl)-2-methylmorpholine 2,2,2-trifluoroacetate] yielded an IC50 on YKL-40 of over 100 µM.

`Cc1nsc(N2CCC(N3C[C@H](C)OC[C@@H]3Cc3ccc(Cl)cc3)CC2)n1` [compound 180, (2S,5S)-5-(4-chlorobenzyl)-2-methyl-4-(1-(3-methyl-1,2,4-thiadiazol-5-yl)piperidin-4-yl)morpholine 2,2,2-trifluoroacetate]: the IC50 on YKL-40 was over 100 µM.

Regarding `C[C@H]1CN(C2CCN(c3nncs3)CC2)[C@@H](Cc2ccc(Cl)cc2)CO1` [compound 181, (2S,5S)-4-(1-(1,3,4-thiadiazol-2-yl)piperidin-4-yl)-5-(4-chlorobenzyl)-2-methylmorpholine 2,2,2-trifluoroacetate], the IC50 at YKL-40 is over 100 µM.

Turning to `Cc1nnc(N2CCC(N3C[C@H](C)OC[C@@H]3Cc3ccc(Cl)cc3)CC2)s1` [compound 182, (2S,5S)-5-(4-chlorobenzyl)-2-methyl-4-(1-(5-methyl-1,3,4-thiadiazol-2-yl)piperidin-4-yl)morpholine 2,2,2-trifluoroacetate], the IC50 on YKL-40 was over 100 µM.

`Cc1csc(N2CCC(N3C[C@H](C)OC[C@@H]3Cc3ccc(Cl)cc3)CC2)n1` [compound 184, (2S,5S)-5-(4-chlorobenzyl)-2-methyl-4-(1-(4-methylthiazol-2-yl)piperidin-4-yl)morpholine 2,2,2-trifluoroacetate] registered a half-inhibitory concentration (IC50) at YKL-40 of 1 to 10 µM.

With `Cc1noc(N2CCC(N3C[C@H](C)OC[C@@H]3Cc3ccc(Cl)cc3)CC2)n1` [compound 188, (2S,5S)-5-(4-chlorobenzyl)-2-methyl-4-(1-(3-methyl-1,2,4-oxadiazol-5-yl)piperidin-4-yl)morpholine 2,2,2-trifluoroacetate], the 50% inhibitory concentration (IC50) on YKL-40 was over 100 µM.
